From patent publication US11548871B2, “Triazole carbamate pyridyl sulfonamides as LPA receptor antagonists and uses thereof” (Gilead Sciences, Inc., priority 2019, dated 2023)

Molecular target: human LPAR1 (Homo sapiens, UniProt Q92633)
Test: LPAR1 intracellular calcium mobilization assay (antagonist mode)
Description: In vitro LPAR1 activity was measured in an intracellular calcium mobilization assay.
Prior to testing cell media were aspirated from the cells and replaced with 20 μL Calcium Dye Loading Buffer (DiscoverX Calcium NoWash^PLUS Assay Kit cat #90-0091) and 2.5 mM Probenecid (Sigma Aldrich cat #P8761, prepared fresh) in HBSS/20 mM Hepes for 60 min at 37° C.
For agonist dose curves, cells were removed from the incubator after dye loading and 10 μL HBSS/20 mM Hepes including 3× vehicle was added. Cells were incubated for 30 min at room temperature in the dark to equilibrate plate temperatures. An intermediate LPA dilution series was prepared in assay buffer to generate 4× stock. Calcium mobilization was monitored on a FLIPR Tetra (MDS, San Jose, Calif.) for 2 min and 10 μL 4×LPA in HBSS/20 mM Hepes was added to the cells 5 s into the assay.
An intermediate antagonist dilution series was prepared as 3× samples in assay buffer. After dye loading, cells were removed from the incubator and 10 μL 3× antagonist was added. Cells were incubated for 30 min at room temperature in the dark to equilibrate plate temperatures. The final vehicle (DMSO) concentration was 1%. Compound antagonist activities was measured on a FLIPR Tetra. Calcium mobilization was monitored for 2 min and 10 μL EC80 agonist in HBSS/20 mM Hepes was added to the cells 5 s into the assay. Compound activity was analyzed using CBIS data analysis suite (ChemInnovation Software, San Diego, Calif.).

Sequence of human LPAR1 (Q92633 whole entry): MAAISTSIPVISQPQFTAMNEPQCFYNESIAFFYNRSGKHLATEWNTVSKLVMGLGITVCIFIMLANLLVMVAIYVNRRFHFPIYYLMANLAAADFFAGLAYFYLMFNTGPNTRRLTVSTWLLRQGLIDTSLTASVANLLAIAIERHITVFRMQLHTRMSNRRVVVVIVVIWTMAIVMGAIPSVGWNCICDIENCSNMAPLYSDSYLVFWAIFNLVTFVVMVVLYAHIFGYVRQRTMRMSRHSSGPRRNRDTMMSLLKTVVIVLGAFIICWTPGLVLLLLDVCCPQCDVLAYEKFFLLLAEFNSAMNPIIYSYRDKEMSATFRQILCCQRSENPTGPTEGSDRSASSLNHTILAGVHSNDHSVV

Row | Compound | EC50 [nM]
1 | Cc1cccc(COC(=O)Nc2c(-c3ccc(NS(C)(=O)=O)c(C)n3)nnn2C)c1 [Compound 37, 3-methylbenzyl (1-methyl-4-(6-methyl-5-(methylsulfonamido)pyridin-2-yl)-1H-1,2,3-triazol-5-yl)carbamate] | 172
2 | Cc1nc(-c2nnn(C)c2NC(=O)OCc2cc(F)ccc2Cl)ccc1NS(C)(=O)=O [Compound 38, 2-chloro-5-fluorobenzyl (1-methyl-4-(6-methyl-5-(methylsulfonamido)pyridin-2-yl)-1H-1,2,3-triazol-5-yl)carbamate] | 167
3 | Cc1nc(-c2nnn(C)c2NC(=O)OCc2cccc(Cl)c2)ccc1NS(C)(=O)=O [Compound 39, 3-chlorobenzyl (1-methyl-4-(6-methyl-5-(methylsulfonamido)pyridin-2-yl)-1H-1,2,3-triazol-5-yl)carbamate] | 89.5
4 | Cc1nc(-c2nnn(C)c2NC(=O)OCc2ccccc2Cl)ccc1NS(C)(=O)=O [Compound 40, 2-chlorobenzyl (1-methyl-4-(6-methyl-5-(methylsulfonamido)pyridin-2-yl)-1H-1,2,3-triazol-5-yl)carbamate] | 87
5 | Cc1nc(-c2nnn(C)c2NC(=O)O[C@H](C)c2cccc(Cl)c2)ccc1NS(C)(=O)=O [Compound 41, (R)-1-(3-chlorophenyl)ethyl (1-methyl-4-(6-methyl-5-(methylsulfonamido)pyridin-2-yl)-1H-1,2,3-triazol-5-yl)carbamate] | 65
6 | Cc1ccccc1[C@@H](C)OC(=O)Nc1c(-c2ccc(NS(C)(=O)=O)c(C)n2)nnn1C [Compound 42, (R)-1-(o-tolyl)ethyl (1-methyl-4-(6-methyl-5-(methylsulfonamido)pyridin-2-yl)-1H-1,2,3-triazol-5-yl)carbamate] | 46.1
7 | Cc1nc(-c2nnn(C)c2NC(=O)O[C@H](CF)c2cccc(F)c2)ccc1NS(C)(=O)=O [Compound 43, (S)-2-fluoro-1-(3-fluorophenyl)ethyl (1-methyl-4-(6-methyl-5-(methylsulfonamido)pyridin-2-yl)-1H-1,2,3-triazol-5-yl)carbamate] | 18.4
8 | Cc1nc(-c2nnn(C)c2NC(=O)O[C@H](CF)c2ccccc2F)ccc1NS(C)(=O)=O [Compound 44, (S)-2-fluoro-1-(2-fluorophenyl)ethyl (1-methyl-4-(6-methyl-5-(methylsulfonamido)pyridin-2-yl)-1H-1,2,3-triazol-5-yl)carbamate] | 50
9 | Cc1nc(-c2nnn(C)c2NC(=O)O[C@H](CF)c2cc(F)ccc2F)ccc1NS(C)(=O)=O [Compound 45, (S)-1-(2,5-difluorophenyl)-2-fluoroethyl (1-methyl-4-(6-methyl-5-(methylsulfonamido)pyridin-2-yl)-1H-1,2,3-triazol-5-yl)carbamate] | 55.8
10 | Cc1nc(-c2nnn(C)c2NC(=O)OC(CCC2CC2)C(F)(F)F)ccc1NS(C)(=O)=O (centres unmarked) [Compound 46, 4-cyclopropyl-1,1,1-trifluorobutan-2-yl (1-methyl-4-(6-methyl-5-(methylsulfonamido)pyridin-2-yl)-1H-1,2,3-triazol-5-yl)carbamate] | 91.3
11 | CCCCC[C@H](OC(=O)Nc1c(-c2ccc(NS(C)(=O)=O)c(C)n2)nnn1C)C(F)(F)F [Compound 47, (S)-1,1,1-trifluoroheptan-2-yl (1-methyl-4-(6-methyl-5-(methylsulfonamido)pyridin-2-yl)-1H-1,2,3-triazol-5-yl)carbamate] | 132
12 | Cc1nc(-c2nnn(C)c2NC(=O)OC(C2CCCCC2)C(F)(F)F)ccc1NS(C)(=O)=O (centres unmarked) [Compound 48, 1-cyclohexyl-2,2,2-trifluoroethyl (1-methyl-4-(6-methyl-5-(methylsulfonamido)pyridin-2-yl)-1H-1,2,3-triazol-5-yl)carbamate] | 162
13 | Cc1nc(-c2nnn(C)c2NC(=O)O[C@H](CCl)c2ccccc2)ccc1NS(C)(=O)=O [Compound 49, (S)-2-chloro-1-phenylethyl (1-methyl-4-(6-methyl-5-(methylsulfonamido)pyridin-2-yl)-1H-1,2,3-triazol-5-yl)carbamate] | 203
14 | Cc1nc(-c2nnn(C)c2NC(=O)O[C@H](CC#N)c2ccccc2)ccc1NS(C)(=O)=O [Compound 50, (R)-2-cyano-1-phenylethyl (1-methyl-4-(6-methyl-5-(methylsulfonamido)pyridin-2-yl)-1H-1,2,3-triazol-5-yl)carbamate] | 730
15 | CCCCCC[C@H](OC(=O)Nc1c(-c2ccc(NS(C)(=O)=O)c(C)n2)nnn1C)C(F)(F)F [Compound 51, (S)-1,1,1-trifluorooctan-2-yl (1-methyl-4-(6-methyl-5-(methylsulfonamido)pyridin-2-yl)-1H-1,2,3-triazol-5-yl)carbamate] | 1250
16 | Cc1nc(-c2nnn(C)c2NC(=O)O[C@H](C)c2cc(Cl)sc2Cl)ccc1NS(C)(=O)=O [Compound 52, (R)-1-(2,5-dichlorothiophen-3-yl)ethyl (1-methyl-4-(6-methyl-5-(methylsulfonamido)pyridin-2-yl)-1H-1,2,3-triazol-5-yl)carbamate] | 16.7

Row | Compound | EC50 [nM]
17 | Cc1nc(-c2nnn(C)c2NC(=O)O[C@H](C)c2cc(F)cc(F)c2)ccc1NS(C)(=O)=O [Compound 53, (R)-1-(3,5-difluorophenyl)ethyl (1-methyl-4-(6-methyl-5-(methylsulfonamido)pyridin-2-yl)-1H-1,2,3-triazol-5-yl)carbamate] | 170
18 | Cc1nc(-c2nnn(C)c2NC(=O)O[C@@H](c2ccccc2F)C(F)F)ccc1NS(C)(=O)=O [Compound 54, (S)-2,2-difluoro-1-(2-fluorophenyl)ethyl (1-methyl-4-(6-methyl-5-(methylsulfonamido)pyridin-2-yl)-1H-1,2,3-triazol-5-yl)carbamate] | 90.6
19 | CSc1ccccc1[C@@H](C)OC(=O)Nc1c(-c2ccc(NS(C)(=O)=O)c(C)n2)nnn1C [Compound 55, (R)-1-(2-(methylthio)phenyl)ethyl (1-methyl-4-(6-methyl-5-(methylsulfonamido)pyridin-2-yl)-1H-1,2,3-triazol-5-yl)carbamate] | 64.9
20 | Cc1nc(-c2nnn(C)c2NC(=O)O[C@H](C)c2cc(Cl)ccc2F)ccc1NS(C)(=O)=O [Compound 56, (R)-1-(5-chloro-2-fluorophenyl)ethyl (1-methyl-4-(6-methyl-5-(methylsulfonamido)pyridin-2-yl)-1H-1,2,3-triazol-5-yl)carbamate] | 59.9
21 | Cc1nc(-c2nnn(C)c2NC(=O)O[C@@H](c2ccccc2)C(F)F)ccc1NS(C)(=O)=O [Compound 57, (S)-2,2-difluoro-1-phenylethyl (1-methyl-4-(6-methyl-5-(methylsulfonamido)pyridin-2-yl)-1H-1,2,3-triazol-5-yl)carbamate] | 48.5
22 | Cc1nc(-c2nnn(C)c2NC(=O)O[C@@H](c2cccc(F)c2)C(F)F)ccc1NS(C)(=O)=O [Compound 58, (S)-2,2-difluoro-1-(3-fluorophenyl)ethyl (1-methyl-4-(6-methyl-5-(methylsulfonamido)pyridin-2-yl)-1H-1,2,3-triazol-5-yl)carbamate] | 43.9
23 | Cc1nc(-c2nnn(C)c2NC(=O)O[C@H](CF)c2ccccc2)ccc1NS(C)(=O)=O [Compound 59, (S)-2-fluoro-1-phenylethyl (1-methyl-4-(6-methyl-5-(methylsulfonamido)pyridin-2-yl)-1H-1,2,3-triazol-5-yl)carbamate] | 37.7
24 | Cc1nc(-c2nnn(C)c2NC(=O)O[C@H](C)c2cc(F)ccc2Cl)ccc1NS(C)(=O)=O [Compound 60, (R)-1-(2-chloro-5-fluorophenyl)ethyl (1-methyl-4-(6-methyl-5-(methylsulfonamido)pyridin-2-yl)-1H-1,2,3-triazol-5-yl)carbamate] | 31.3
25 | Cc1nc(-c2nnn(C)c2NC(=O)O[C@H](C)c2cc(Cl)ccc2Cl)ccc1NS(C)(=O)=O [Compound 61, (R)-1-(2,5-dichlorophenyl)ethyl (1-methyl-4-(6-methyl-5-(methylsulfonamido)pyridin-2-yl)-1H-1,2,3-triazol-5-yl)carbamate] | 30
26 | Cc1nc(-c2nnn(C)c2NC(=O)O[C@@H](c2cccc(Cl)c2)C(F)F)ccc1NS(C)(=O)=O [Compound 62, (S)-1-(3-chlorophenyl)-2,2-difluoroethyl (1-methyl-4-(6-methyl-5-(methylsulfonamido)pyridin-2-yl)-1H-1,2,3-triazol-5-yl)carbamate] | 29
27 | Cc1nc(-c2nnn(C)c2NC(=O)O[C@H](C)c2cc(F)ccc2F)ccc1NS(C)(=O)=O [Compound 63, (R)-1-(2,5-difluorophenyl)ethyl (1-methyl-4-(6-methyl-5-(methylsulfonamido)pyridin-2-yl)-1H-1,2,3-triazol-5-yl)carbamate] | 23.4
28 | Cc1nc(-c2nnn(C)c2NC(=O)N[C@H](C)c2ccccc2)ccc1NS(C)(=O)=O [Compound 64] | 2740
29 | Cc1nc(-c2nnn(C)c2NC(=O)N[C@@H](c2ccccc2)C(F)F)ccc1NS(C)(=O)=O [Compound 65, (S)-N-(6-(5-(3-(2,2-difluoro-1-phenylethyl)ureido)-1-methyl-1H-1,2,3-triazol-4-yl)-2-methylpyridin-3-yl)methanesulfonamide] | 1020
30 | Cc1nc(-c2nnn(C)c2NC(=O)N[C@@H](c2ccccc2)C(F)(F)F)ccc1NS(C)(=O)=O [Compound 66, (S)-N-(2-methyl-6-(1-methyl-5-(3-(2,2,2-trifluoro-1-phenylethyl)ureido)-1H-1,2,3-triazol-4-yl)pyridin-3-yl)methanesulfonamide] | 540
31 | Cc1nc(-c2nnn(C)c2NC(=O)O[C@H](C)c2cccnc2)ccc1NS(C)(=O)=O [Compound 67, (R)-1-(pyridin-3-yl)ethyl (1-methyl-4-(6-methyl-5-(methylsulfonamido)pyridin-2-yl)-1H-1,2,3-triazol-5-yl)carbamate] | 1630
32 | Cc1nc(-c2nnn(C)c2NC(=O)O[C@H](C)c2cccnc2Cl)ccc1NS(C)(=O)=O [Compound 68, (R)-1-(2-chloropyridin-3-yl)ethyl (1-methyl-4-(6-methyl-5-(methylsulfonamido)pyridin-2-yl)-1H-1,2,3-triazol-5-yl)carbamate] | 218
